The Kd is the free concentration of one partner at which half of the binding sites on the other are occupied at equilibrium, for simple one-to-one binding. Low values mean higher affinity, high ones lower affinity.

Molecules are shown by their SMILES.

This assay can be described thus: Binding affinity to beta amyloid protein 1-40 by fluorescence titration. Also on record: species or system Homo sapiens.
In the case of `Oc1ccc(/C=C/c2ccc(/C=C/c3ccc(O)cc3)cc2)cc1`, the affinity, expressed as Kd, was 11 nM.

On to `FC(F)(F)Oc1ccc(/C=C/c2ccc(/C=C/c3ccc(OC(F)(F)F)cc3)cc2)cc1`, for which binding was put at a Kd of 10 nM.

Compound `O=C(O)c1cc(/C=C/c2c(F)c(F)c(/C=C/c3ccc(O)c(C(=O)O)c3)c(F)c2F)ccc1O` had a Kd of 9.4 nM. Under `FC(F)(F)c1ccc(/C=C/c2ccc(/C=C/c3ccc(C(F)(F)F)cc3)cc2)cc1` stands 9.5 nM; under `Oc1ccc(/C=C/c2c(F)c(F)c(/C=C/c3ccc(O)cc3)c(F)c2F)cc1`, 0.03 nM; under `O=C(O)c1cc(/C=C/c2ccc(/C=C/c3ccc(O)c(C(=O)O)c3)c(F)c2)ccc1O`, 3400 nM. `FC(F)(F)c1cccc(/C=C/c2ccc(/C=C/c3cccc(C(F)(F)F)c3)cc2)c1` yielded a Kd of 26 nM.

Consider `FC(F)(F)Oc1cccc(/C=C/c2ccc(/C=C/c3cccc(OC(F)(F)F)c3)cc2)c1`, for which binding was put at a Kd of 16 nM.

Consider `Cc1ccc2c(c1)sc(-c1ccc(N(C)C)cc1)[n+]2C` [THIOFLAVIN T], for which the affinity, expressed as Kd, was 560 nM.

The record behind these values is ChEMBL document CHEMBL1148803, “Polyfluorinated bis-styrylbenzene beta-amyloid plaque binding ligands” (J Med Chem, 2007).
